US6867305B2, “Synthesis of epothilones, intermediates thereto and analogues thereof” (Sloan-Kettering Institute for Cancer Research, priority 1996, dated 2005)
pIC50: −log10 of the molar value. In brackets after ≈: the same amount, converted by molar mass. Several values for one entry are separate records, joined by “and”; a condition that tells them apart may be missing. Equal values may be shown once. Read-outs that look alike come from different tables or passages of the source.

Experiments:
[1] = system: CCRF-CEM/VBL100 (vinblastine-resistant subline); assay: Tumor cell growth inhibition in vitro (XTT, 72 h); type: cell-based, human
Protocol: (§1) The fresh medium containing each drug was replenished every 7-14 days. […] In each case ,the drug-exposed cells were resuspended in fresh media for a minimum of 4 days before the experiments for the cell-growth inhibition was carried out.
(§2) The cells were cultured at an initial density of 2-5×10^4 cells per ml. They were maintained in a 5% CO2-humidified atmosphere at 37° C. in RPMI mediun 1640 (GIBCO/BRL) containing penicillin (100 units/ml), streptomycin (100 μg/ml) (GIBCO/BRL), and 5% heat-inactivated fetal bovine serum. For solid tumor cells growing in a monolayer (such as MCF-7/Adr), cytotoxicitiy of the drug was determined in 96-well microtiter plates by using the sulforhodamine B method as described by Skehan et al (23) for measuring the cellular protein content. For cells that were grown in suspension (such as CCRF-CEM and its sublines), cytotoxicitiy was measured by using the 2,-3-bis(2-methoxy-4-nitro-5-sulfophenyl)-5carboxanilide)-2H terazodium hydroxide (XTT)-microculture tetrazonium method (24) in duplicate in 96-well microtiter plates. For both methods, the absorbance of each well was measured with a microplate reader (EL-340, Bio-Tek, Burlington, Vt.). Each run entailed six or seven concentrations of the tested drugs. Dose-effect relationship data were analyzed with the median-effect plot (25) by using a previously described computer program (26).

[2] = system: DC-3F/ADII; assay: Tumor cell growth inhibition in vitro; type: cell-based, hamster; conditions: for pIC50: DC-3F/ADII; for cross-resistance (fold of resistance vs parent cell line): DC-3F/ADII vs DC-3F
Protocol: as §1, §2

[3] = system: K562 chronic myelocytic leukemia xenograft; assay: Human tumor xenograft in nude mice; type: in vivo; conditions: for Lowest Average Tumor Size (T/C) / Tumor Disappearance: Taxol 20 mg/kg, Q2Dx5, 6-hr i.v. infusion; for therapeutic effect on tumor growth: K562, aza-EpoB 6 mg/kg Q2D×6, 6 h-i.v. infusion (FIG. 34)
Protocol: FIG. 34 depicts tumor size in nude mice bearing human leukemia […] tumor following 6 mg/kg C-15-Aza-EpoB, Q2D×6 and 30 mg/kg dEpoF, Q2ED×6 (i.v. infusion […].). K562 tumor cells (1×10^7 in 0.2 mL) were inoculated to nude mice on day 0. Mice were treated with 6 mg/kg aza-EpoB, 6 h-i.v. infusion on days 20, 22, 24, 26, 28 and 30 (Δ, n=3). The same group of mice were then treated with 30 mg/kg dEpoF, 6 h-i.v. infusion on days 42, 44, 46, 48, 52, and 54 (Δ, n=3). […] The control mice (∘, n=3) received vehicle only.
K562 tumor cells (1×10^7, in 0.2 ml/mouse) were implanted s.c. on day 0. […] The control mice (∘, n=4) received vehicle, Cremophor-ethanol (1:1), only. The vertical bars indicate mean tumor size in mm^3±S.E.
(§3) Depending on the tumor type, treatment started on day 10 to day 21 when subcutaneous tumor size reached 35-200 mm^3, except otherwise indicated. Tumor size and body-weight were recorded every other day (Q2D) and, for humane reasons, the animals were sacrificed when tumor size reached ≧10% of body-weight. Each group, including untreated control, consisted of 3-5 animals unless otherwise indicated.
(§4) Athymic nude mice bearing the nu/nu gene were used for all human tumor xenografts. Outbred, Swiss-background mice were obtained from Charles River Laboratories. Male mice 8 weeks or older weighing 22 g and up were used for most experiments. The drug was administered via the tail vein for 6 hr.-i.v. infusion. Each individual mouse was confined in a perforated Falcon polypropylene tube restrainer for drug administration. Tumor volume was assessed by measuring length×width×height (or width) using a caliper. The programmable Harvard PHD2000 syringe pump (Harvard Apparatus) with multi-track was used for i.v. infusion. […] All animal studies were conducted in accordance with the guidelines of the National Institutes of Health “Guide for the Care and Use of Animals” and the protocol approved by the Memorial Sloan-Kettering Cancer Center's Institutional Animal Care and Use Committee. In keeping with the policy of this committee for the humane treatment of tumor-bearing animals, mice were euthanized when tumors reached ≧10% of their total body weight.
(§5) Human tumor cells (5×10^6) or tumor tissue (30-50 mg) were implanted s.c. flank in nu/nu mice (Charles River Laboratories, Wilmington, Mass.). When tumor grew to a specified size, treatment was started by every-other day×5 with 6 hr i.v.-infusion, unless otherwise indicated. Tumor volume was measured with calipers in three dimensions (length×width×height or width). Body-weight changes and lethality were monitored every other day.

[4] = physchem
[5] = system: CCRF-CEM/Taxol (paclitaxel-resistant subline); assay: Tumor cell growth inhibition in vitro (XTT, 72 h); type: cell-based, human; conditions: for cross-resistance (fold of resistance vs parent cell line): CCRF-CEM/Taxol vs CCRF-CEM; for pIC50: Homo sapiens, CCRF-CEM, 72 h
Protocol: as §1, §2

[6] = system: CCRF-CEM/VM1 (teniposide-resistant subline); assay: Tumor cell growth inhibition in vitro (XTT, 72 h); type: cell-based, human; conditions: for cross-resistance (fold of resistance vs parent cell line): CCRF-CEM/VM1 vs CCRF-CEM; for pIC50: Homo sapiens
Protocol: as §1, §2

[7] = system: MCF-7/Adr; assay: Tumor cell growth inhibition in vitro; type: cell-based, human; conditions: for pIC50: MCF-7/Adr
Protocol: as §2, with “They were maintained in a 5% CO2-humidified atmosphere at 37° C. in RPMI mediun 1640 (GIBCO/BRL) containing penicillin (100 units/ml), streptomycin (100 μg/ml) (GIBCO/BRL), and 5% heat-inactivated fetal bovine serum.” left out

[8] = system: CCRF-CEM leukemia xenograft
Protocol: Nude mice bearing well established CCRF-CEM tumor xenografts (average tumor size about 400 mm^3) were treated with 30 mg/kg of dEpoB or with 6 mg/kg of 15-azaEpoB, 6 hr-i.v. infusion Q2D×6 as shown in FIG. 37.
as §3, §4, §5

[9] = system: MX-1 mammary carcinoma xenograft
[10] = CCRF/CEM, dEpoB 40 mg/kg, Taxol 20 mg/kg, Q2Dx4, 6-hr i.v. infusion

## CC(=O)O[C@H]1C(=O)[C@@]2(C)[C@H]([C@H](OC(=O)c3ccccc3)[C@]3(O)C[C@H](OC(=O)[C@H](O)[C@@H](NC(=O)c4ccccc4)c4ccccc4)C(C)=C1C3(C)C)[C@]1(OC(C)=O)CO[C@@H]1C[C@@H]2O [Taxol, paclitaxel, reference compound]
[1]; CCRF-CEM/VBL100, 72 h
  pIC50: 5.29
[2]
  pIC50: 4.69
[2]; listed as Paclitaxel
  pIC50: 6.23
[3]; K562, dEpoB 30 mg/kg
  Lowest Average Tumor Size (T/C): 0.18
  Tumor Disappearance: 0/6
[4]; water
  solubility: ~600 µg/mL (≈ 0.703 mM)

## C/C(=C\c1csc(C)n1)C1C[C@@H]2O[C@]2(C)CCC[C@H](C)[C@H](O)[C@@H](C)C(=O)C(C)(C)C(O)CC(=O)N1 (some centres unmarked) [aza-EpoB, aza-epothilone B]
[5]
  cross-resistance (fold of resistance vs parent cell line): 81.4 x
[5]; read-out: IC50
  pIC50: 6.77
[1]; CCRF-CEM/VBL100 vs CCRF-CEM
  cross-resistance (fold of resistance vs parent cell line): 1423 x
[1]; Homo sapiens, CCRF-CEM/VBL100, 72 h, read-out: IC50
  pIC50: 5.52
[6]
  cross-resistance (fold of resistance vs parent cell line): 18.6 x
[6]; listed as 15-aza-EpoB
  cross-resistance (fold of resistance vs parent cell line): 118.6 x
[6]; CCRF-CEM/VM1, 72 h, read-out: IC50
  pIC50: 7.41
[2]
  cross-resistance (fold of resistance vs parent cell line): 274 x
[2]; listed as 15-aza-EpoB
  cross-resistance (fold of resistance vs parent cell line): 33.1 x
[2]; listed as 15-aza-EpoB, read-out: IC50
  pIC50: 6.54
[2]; read-out: IC50
  pIC50: 5.62
[7]; Homo sapiens, NCI/ADR-RES, read-out: IC50
  pIC50: 7.93
[7]; MCF-7/Adr vs MCF-7
  cross-resistance (fold of resistance vs parent cell line): 2.7 x
[8]; CCRF-CEM, i.v. infusion, FIG. 5
  Therapeutic Effect Rank Order: dEpoF>>>15-azaEpoB
[8]; CCRF-CEM, tumor about 400 mm^3, 15-azaEpoB 6 mg/kg, 6 hr-i.v. infusion Q2D×6
  therapeutic effect on tumor growth: Moderate suppression of tumor growth
[8]; CCRF-CEM-bearing nude mice, dEpoF 30 mg/kg, 15-azaEpoB 6 mg/kg Q2D×6
  body-weight reduction on day 28: about 10%
[3]
  therapeutic effect on tumor growth: inhibited tumor growth but did not lead to a reduction in the size of the tumor
[3]; listed as azaEpoB
  therapeutic effect on tumor growth: strongly suppressed tumor growth but did not shrink the tumor
[3]; K562, i.v. infusion (dEpoF vs 15-azaEpoB)
  Therapeutic Effect Rank Order: dEpoF>>>15-azaEpoB
[9]; MX-1-bearing mice, azaEpoB 6 mg/kg
  mice died of toxicity on day 22: one out of five
[9]; mouse, in vivo, iv
  Therapeutic Effect Rank Order: dEpoB>>>15-azaEpoB

## C/C1=C/C[C@@H](/C(C)=C/c2csc(C)n2)OC(=O)C[C@H](O)C(C)(C)C(=O)[C@H](C)[C@@H](O)[C@@H](C)CCC1 [dEpoB, 12,13-desoxyepothilone B]
[5]
  cross-resistance (fold of resistance vs parent cell line): 1.7 x and 1.2 x
  pIC50: 7.79
[1]; Homo sapiens, CCRF-CEM, 72 h
  pIC50: 7.77
[6]
  cross-resistance (fold of resistance vs parent cell line): 1.5 x
[6]; CCRF-CEM, 72 h
  pIC50: 7.85
[7]; Homo sapiens, NCI/ADR-RES
  pIC50: 8.15
[7]
  pIC50: 7.88
[8]; CCRF-CEM, i.v. infusion (dEpoB vs Taxol)
  Therapeutic Effect Rank Order: dEpoB≈Taxol
[8]; [10]
  Lowest Average Tumor Size (T/C): 0
  Tumor Disappearance: 2/2
[3]; K562, i.v. infusion, FIG. 3 & 4
  Therapeutic Effect Rank Order: dEpoB>>>VBL> Taxol> Adriamycin
[3]; K562, single course Q2D×3, dEpoB 30 mg/kg (FIG. 37)
  therapeutic effect of single course: disappearance of K562 xenografts for four weeks
[3]; K562, dEpoB 30 mg/kg, Taxol 20 mg/kg 6 hr i.v. infusion, Adriamycin 3 mg/kg, vinblastine 2.5 mg/kg i.v., every other day from day 20 (FIG. 36)
  therapeutic effect: Complete remission
[3]; K562, dEpoB 30 mg/kg
  Lowest Average Tumor Size (T/C): 0
  Tumor Disappearance: 5/5
[3]; K562 tumor as large as 880 mm^3 after paclitaxel, then dEpoB 30 mg/kg (Q2D×3)×3
  tumor size after treatment: less than 20 mm^3
[9]; MX-1, dEpoB 30 mg/kg Q2D×6 (day 10-20) then Q2D×5 (day 26-34)
  tumor disappearance on day 22: ⅕
[9]; MX-1, dEpoB 30 mg/kg Q2D×6 then Q2D×5
  tumor disappearance on day 38: ⅖
[9]; MX-1-bearing mice, after dEpoB second cycle
  body-weight gain during day 36-40: about 2 gm
[9]; MX-1-bearing mice, dEpoB 30 mg/kg Q2D (day 10-20)
  body-weight decrease on day 22: about 3.5 gm
[9]; MX-1-bearing mice, dEpoB second cycle Q2D×5 (day 26-34)
  body-weight drop on day 36: about 4.1 gm
[9]; mouse, in vivo
  Lowest Average Tumor Size (T/C): 0
  Therapeutic Effect Rank Order: dEpoB>Adriamycin>Taxol
  Tumor Disappearance: 5/5
[9]; mouse, in vivo, ip
  Therapeutic Effect Rank Order: dEpoB>Camptothecin>Taxol>VBL, EpoB
[4]
  solubility: ~10000 µg/mL (≈ 20.3 mM)
